From patent US20100120798A1, “SUBSTITUTED PIPERIDINES CONTAINING A HETEROARYLAMIDE OR HETEROARYLPHENYL MOIETY” (ASTEX THERAPEUTICS LIMITED, priority 2006, published 2010)

assay: In vitro MDA-MB-468 human breast adenocarcinoma GSK-3 phosphorylation assay; type: cell-based; conditions: mean IC50, MDA-MB-468 cells, 2 hours with compound, phospho-GSK-3β
Excerpt: This assay determines the ability of test compounds to inhibit phosphorylation of Serine-9 residue in Glycogen Synthase Kinase-3beta (GSK-3β) as a surrogate marker of cellular PKB (Akt) activity, as assessed using Acumen Explorer Fluorescent Plate-Reader technology. A MDA-MB-468 human breast adenocarcinoma cell line (LGC Promochem, Teddington, Middlesex, UK, Catalogue No. HTB-132) was routinely maintained in Dulbecco's modified Eagle's growth medium (DMEM; Invitrogen Limited, Paisley, UK Catalogue No. 11966-025) containing 10% heat-inactivated foetal calf serum (FCS; Sigma, Poole, Dorset, UK, Catalogue No. F0392) and 1% L-glutamine (Gibco, Catalogue No. 25030-024) at 37° C. with 5% CO2 up to a confluency of 70-90%.
For the phosphorylation assay, the cells were detached from the culture flask using Trypsin-EDTA (Invitrogen Limited, Catalogue No. 25300-062) and seeded into the wells of a black transparent-bottom Corning Costar Polystyrene 96 well plate (Fisher Scientific UK, Loughborough, Leicestershire, UK; Catalogue No. 3904 and DPS-130-020K) at a density of 5000 cells per well in 100 μl of complete growth media. The cells were incubated overnight at 37° C. with 5% CO2 to allow them to adhere.
On day 2, the cells were treated with test compounds and incubated for 2 hours at 37° C. with 5% CO2. Test compounds were prepared as 10 mM stock solutions in DMSO and dosed directly to required concentration into test wells using non-contact (acoustic dispensing of multiple 2.5 nl droplets directly into assay wells) ECHO dosing technology (Labcyte Inc. Sunnyvale, Calif., USA). Each plate contained control wells without test compound.
20 μl of fixing buffer (Phosphate Buffered Saline (PBS) containing 10% formaldehyde; Sigma; Catalogue No. F1635) was then added to each well to give a final well concentration 1.6%. Plates were then incubated for 30 minutes at room temperature prior to the fixative being removed. Each well was washed once with 250 μl of PBS and then 50 μl PBS added to each well. PBS was then aspirated and cells permeabilised and blocked by incubating each well with 50 μl of permeabilisation/blocking buffer (PBS containing 0.5% Tween 20 (Sigma; Catalogue No. P5927) and 5% Marvel Milk Powder (Andrews Pharmacy Ltd, Macclesfield, Cheshire, UK; Catalogue No. APC100199)) for 1 hour at room temperature prior to staining.
Following removal of Perm/Block buffer, 50 μl of primary anti-phospho-GSK-3β antibody (Cell Signalling Technology (New England Biolabs (Uk) Ltd.), Hitchin, Hertfordshire, UK; Catalogue No. 9336 diluted 1:400 in Blocking buffer (PBS containing 5% Marvel and 0.05% Tween/Polysorbate 20) was added to each well and incubated overnight at 4° C.
Each well was washed three times in 250 μl of wash buffer (PBS containing 0.05% polysorbate 20), and cells incubated for 1 hour at room temperature with 50 μl of secondary fluorescently-labelled anti-rabbit Alexa Fluor 488 antibody (Molecular Probes, Invitrogen Limited, Catalogue No. A11008) diluted 1:750 in blocking buffer. Plates were washed three times in 250 μl of wash buffer and stored containing 50 μl of PBS at 4° C. until required.
Plates were analysed using an Acumen Explorer Plate-reader to quantify level of fluorescent signal that represents quantity of phosphorylated-GSK-3β.
IC50 calculation—IC50 is the concentration of compound required to give 50% effect over the range of activity affected by the compound, between maximum (no compound) and minimum (excess level of compound) response control data. IC50 values were determined by fitting background corrected, dose response assay data to a 4 parameter logistic curve fit equation model with the minimum response set to zero. This was done using an in-house developed algorithm within the Origin graphing software package (OriginLab Corporation, Northampton, Mass., USA). […]

Compound	IC50
NCC1(c2cccc(-c3ccncc3)c2)CCN(c2ncnc3[nH]ccc23)CC1 [Example 75, [4-(3-pyridin-4-ylphenyl)-1-(7H-pyrrolo[3,2-e]pyrimidin-4-yl)piperidin-4-yl]methanamine]	65 nM
CN(C)CC1(c2cccc(-c3cnn(C)c3)c2)CCN(c2ncnc3[nH]cnc23)CC1 [Example 32, N,N-dimethyl-1-(4-(3-(1-methyl-1H-pyrazol-4-yl)phenyl)-1-(9H-purin-6-yl)piperidin-4-yl)methanamine]	290 nM
NCC1(c2cccc(-c3cnoc3)c2)CCN(c2ncnc3[nH]ccc23)CC1 [Example 80, [4-[3-(1,2-oxazol-4-yl)phenyl]-1-(7H-pyrrolo[3,2-e]pyrimidin-4-yl)piperidin-4-yl]methanamine]	100 nM
Cn1cc(-c2cccc(C3(CN)CCN(c4ncnc5[nH]ccc45)CC3)c2)cn1 [Example 51, (4-(3-(1-Methyl-1H-pyrazol-4-yl)phenyl)-1-(7H-pyrrolo[2,3-d]pyrimidin-4-yl)piperidin-4-yl)methanamine]	< 17 nM
Cn1cc(-c2cccc(C3(CN)CCN(c4ncnc5[nH]nc(Br)c45)CC3)c2)cn1 [Example 31, (1-(3-Bromo-1H-pyrazolo[3,4-d]pyrimidin-4-yl)-4-(3-(1-methyl-1H-pyrazol-4-yl)phenyl)piperidin-4-yl)methanamine]	22 nM
Cn1cc(-c2cc(F)cc(C3(CN)CCN(c4ncnc5[nH]ccc45)CC3)c2)cn1 [Example 70, (4-(3-fluoro-5-(1-methyl-1H-pyrazol-4-yl)phenyl)-1-(7H-pyrrolo[2,3-d]pyrimidin-4-yl)piperidin-4-yl)methanamine]	59 nM
NCC1(c2cccc(-c3ccoc3)c2)CCN(c2ncnc3[nH]ccc23)CC1 [Example 79, [4-(3-furan-3-ylphenyl)-1-(7H-pyrrolo[3,2-e]pyrimidin-4-yl)piperidin-4-yl]methanamine]	48 nM
NC1(C(=O)Nc2cccc(-c3nc4ccccc4o3)c2)CCN(c2ncnc3[nH]ccc23)CC1 [Example 52, 4-Amino-1-(7H-pyrrolo[2,3-d]pyrimidin-4-yl)-piperidine-4-carboxylic acid (3-benzooxazol-2-yl-phenyl)-amide]	5100 nM
Cn1cc(-c2cccc(C3(CCCN)CCN(c4ncnc5[nH]cnc45)CC3)c2)cn1 [Example 34, 3-(4-(3-(1-methyl-1H-pyrazol-4-yl)phenyl)-1-(9H-purin-6-yl)piperidin-4-yl)propan-1-amine]	> 2000 nM
NCC1(c2cccc(-c3cncnc3)c2)CCN(c2ncnc3[nH]ccc23)CC1 [Example 77, [4-(3-pyrimidin-5-ylphenyl)-1-(7H-pyrrolo[3,2-e]pyrimidin-4-yl)piperidin-4-yl]methanamine]	35 nM
CNCC1(c2cccc(-c3cnn(C)c3)c2)CCN(c2ncnc3[nH]cnc23)CC1 [Example 9, Methyl-[4-[3-(1-methyl-1H-pyrazol-4-yl)-phenyl]-1-(9H-purin-6-yl)-piperidin-4-ylmethyl]-amine]	400 nM
Cc1c[nH]c2ncnc(N3CCC(CN)(c4cccc(-c5cnn(C)c5)c4)CC3)c12 [Example 30, (4-(3-(1-methyl-1H-pyrazol-4-yl)phenyl)-1-(5-methyl-7H-pyrrolo[2,3-d]pyrimidin-4-yl)piperidin-4-yl)methanamine]	27 nM

Second part, the molecule after the results:

IC50	Compound
> 19000 nM	Cn1cc(CNC(=O)C2(N)CCN(c3ncnc4[nH]ccc34)CC2)cn1 [Example 45, 4-amino-N-[(1-methylpyrazol-4-yl)methyl]-1-(7H-pyrrolo[2,3-d]pyrimidin-4-yl)piperidine-4-carboxamide]
23 nM	NCC1(C(=O)NCc2cc3ccccc3[nH]2)CCN(c2ncnc3[nH]ccc23)CC1 [Example 26, N-((1H-Indol-2-yl)methyl)-4-(aminomethyl)-1-(7H-pyrrolo[2,3-d]pyrimidin-4-yl)piperidine-4-carboxamide]
16 nM	NCC1(C(=O)NCc2ccc(Cl)s2)CCN(c2ncnc3[nH]ccc23)CC1 [Example 22, 4-(Aminomethyl)-N-((5-chlorothiophen-2-yl)methyl)-1-(7H-pyrrolo[2,3-]pyrimidin-4-yl)piperidine-4-carboxamide]
14000 nM	NC1(C(=O)NCc2cnc(-c3ccccc3)s2)CCN(c2ncnc3[nH]ccc23)CC1 [Example 46, 4-Amino-1-(7H-pyrrolo[2,3-d]pyrimidin-4-yl)-piperidine-4-carboxylic acid (2-phenyl-thiazol-5-ylmethyl)-amide]
4200 nM	Cc1cc(CNC(=O)C2(N)CCN(c3ncnc4[nH]ccc34)CC2)on1 [Example 49, 4-Amino-1-(7H-pyrrolo[2,3-d]pyrimidin-4-yl)-piperidine-4-carboxylic acid (3-methyl-isoxazol-5-ylmethyl)-amide]
4100 nM	NC1(C(=O)NCc2cnc3ccccc3c2)CCN(c2ncnc3[nH]ccc23)CC1 [Example 41, 4-Amino-1-(7H-pyrrolo[2,3-d]pyrimidin-4-yl)-N-(quinolin-3-ylmethyl)piperidine-4-carboxamide]
380 nM	NC1(C(=O)NCc2cc(Br)no2)CCN(c2ncnc3[nH]ccc23)CC1 [Example 48, 4-Amino-1-(7H-pyrrolo[2,3-d]pyrimidin-4-yl)-piperidine-4-carboxylic acid (3-bromo-isoxazol-5-ylmethyl)-amide]
47 nM	NCC1(C(=O)Nc2ccc(C(F)(F)F)cn2)CCN(c2ncnc3[nH]ccc23)CC1 [Example 61, 4-(Aminomethyl)-1-(7H-pyrrolo[2,3-d]pyrimidin-4-yl)-N-(5-(trifluoromethyl)pyridin-2-yl)piperidine-4-carboxamide]
110 nM	NCC1(C(=O)NCc2ccc(C(F)(F)F)nc2)CCN(c2ncnc3[nH]ccc23)CC1 [Example 27, 4-(Aminomethyl)-1-(7H-pyrrolo[2,3-d]pyrimidin-4-yl)-N-((6-(trifluoromethyl)pyridin-3-yl)methyl)piperidine-4-carboxamide]
300 nM	NC1(C(=O)NCc2ccc(Cl)s2)CCN(c2ncnc3[nH]ccc23)CC1 [Example 39, 4-Amino-N-[(5-chlorothiophen-2-yl)methyl]-1-(7H-pyrrolo[2,3-d]pyrimidin-4-yl)piperidine-4-carboxamide]
73 nM	NCC1(C(=O)Nc2ccc(Cl)cn2)CCN(c2ncnc3[nH]ccc23)CC1 [Example 81, 4-(Aminomethyl)-N-(5-chloropyridin-2-yl)-1-(7H-pyrrolo[2,3-d]pyrimidin-4-yl)piperidine-4-carboxamide]
< 5.9 nM	NCC1(C(=O)NCc2ccc(Br)s2)CCN(c2ncnc3[nH]ccc23)CC1 [Example 21, 4-(aminomethyl)-N-((5-bromothiophen-2-yl)methyl)-1-(7H-pyrrolo[2,3-d]pyrimidin-4-yl)piperidine-4-carboxamide]
3400 nM	Cc1csc(CNC(=O)C2(N)CCN(c3ncnc4[nH]ccc34)CC2)n1 [Example 40, 4-Amino-N-[(4-methyl-1,3-thiazol-2-yl)methyl]-1-(7H-pyrrolo[2,3-d]pyrimidin-4-yl)piperidine-4-carboxamide]
54 nM	NCC1(C(=O)Nc2ccc(C(F)(F)F)nc2)CCN(c2ncnc3[nH]ccc23)CC1 [Example 82, 4-(Aminomethyl)-1-(7H-pyrrolo[2,3-d]pyrimidin-4-yl)-N-(6-(trifluoromethyl)pyridin-3-yl)piperidine-4-carboxamide]
